Experimental data published in patent publication US7973072B2, “Substituted benzo-condensed cyclohexanone derivatives and the use thereof for medicament production” (Gruenenthal GmbH, priority 2005, dated 2011).

Key:
[1] = target: T1, human vanilloid receptor 1 (VR1) (Homo sapiens, UniProt Q8NER1); assay: FLIPR Ca2+ functional study on human vanilloid receptor 1 (CHO K1 cells transfected with human VR1); format: cell-based; details: for inhibition at 10 µM: CHO-K1, read-out: VR1 (human) (% inhibition compared to 10 μM CP); for inhibition at 10 µM / VR1 (human) (% inhibition compared to 10 μM CP): test compound 10 μM, suppression of Ca2+ current after 100 nM capsaicin, relative to maximum inhibition with 10 μM capsaicin (CP); for EC50: agonistic action
T1 construct: expressed in transfected cells; host or cells: CHO K1 cells (ECACC), stably transfected
T1 sequence (Q8NER1 whole entry): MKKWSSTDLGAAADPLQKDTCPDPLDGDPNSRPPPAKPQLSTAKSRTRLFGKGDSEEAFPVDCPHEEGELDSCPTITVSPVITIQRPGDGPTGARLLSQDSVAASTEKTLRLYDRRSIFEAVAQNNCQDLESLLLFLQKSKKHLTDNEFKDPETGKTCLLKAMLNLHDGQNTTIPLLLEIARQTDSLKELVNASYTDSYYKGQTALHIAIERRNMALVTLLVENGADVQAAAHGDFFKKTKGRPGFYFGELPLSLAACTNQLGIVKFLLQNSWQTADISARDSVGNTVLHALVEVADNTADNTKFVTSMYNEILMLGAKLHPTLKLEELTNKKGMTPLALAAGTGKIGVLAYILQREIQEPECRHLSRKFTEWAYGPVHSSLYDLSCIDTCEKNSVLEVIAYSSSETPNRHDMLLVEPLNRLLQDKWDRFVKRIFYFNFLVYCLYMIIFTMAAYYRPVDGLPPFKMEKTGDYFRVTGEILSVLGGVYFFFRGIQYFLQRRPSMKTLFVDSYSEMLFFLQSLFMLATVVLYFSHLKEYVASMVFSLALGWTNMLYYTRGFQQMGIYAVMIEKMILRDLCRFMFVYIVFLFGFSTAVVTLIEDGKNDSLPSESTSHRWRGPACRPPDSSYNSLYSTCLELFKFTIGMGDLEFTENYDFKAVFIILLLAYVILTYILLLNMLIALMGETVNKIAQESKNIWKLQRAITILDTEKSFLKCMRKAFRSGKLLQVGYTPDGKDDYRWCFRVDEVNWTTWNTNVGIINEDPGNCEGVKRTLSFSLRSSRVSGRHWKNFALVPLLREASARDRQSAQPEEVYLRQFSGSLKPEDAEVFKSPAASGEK
Protocol: Chinese hamster ovary cells (CHO K1 cells, European Collection of Cell Cultures (ECACC), England) are transfected stably with the human vanilloid receptor 1 (VR1) gene or the vanilloid receptor 1 (VR1) gene of the rat. For functional studies, these cells are plated out onto poly-D-lysine-coated black 96-well plates with a clear bottom (BD Biosciences, Heidelberg, Germany) in a density of 25 000 cells/well. The cells are incubated overnight at 37° C. and 5% CO2 in culture medium (Ham's Nutrient Mixture F12, Gibco Invitrogen GmbH, Karlsruhe, Germany) with 10% by volume of FBS (fetal bovine serum, Gibco Invitrogen GmbH, Karlsruhe, Germany), and 18 μg/ml of L-proline (Gibco Invitrogen GmbH, Karlsruhe, Germany). The next day, the cells are laden with 2 μM Fluo-4 and 0.01% by volume of Pluronic F127 (Molecular Probes Europe BV, Leiden, The Netherlands) in HBSS buffer (Hank's buffered saline solution, Gibco Invitrogen GmbH, Karlsruhe, Germany) at 37° C. for 30 min. Subsequently, the plates are washed 3 times with HBSS buffer and, after a further incubation of 15 minutes at room temperature, used for Ca^2+ measurement in the FLIPR assay. The Ca^2+-dependent fluorescence is measured before and after addition of substances λex=488 nm, λem=540 nm). The quantification is effected by measuring the highest fluorescence intensity (FC, fluorescence counts) over the time.
The FLIPR protocol consists of 2 substance additions. First, the compounds to be tested (10 μM) are pipetted onto the cells obtained according to Ia or Ib and the Ca^2+ current is compared with the control (capsaicin 10 μM). This gives rise to the result in % activation based on the Ca^2+ signal after addition of 10 μM capsaicin (CP). After incubation for 5 minutes, 100 nM capsaicin is applied and the current of Ca^2+ is likewise determined.
Desensitizing agonists and antagonists lead to a suppression in the Ca^2+ current. % inhibition is calculated compared to the maximum achievable inhibition with 10 μM capsaicin.
Triple determinations (n=3) are performed and they are repeated in at least 3 independent experiments (N=4).

[2] = target: T2, vanilloid receptor 1 (VR1/TRPV1) of the rat (Rattus norvegicus, UniProt O35433); assay: FLIPR Ca2+ functional study on rat vanilloid receptor 1 (rat dorsal root ganglia cells or CHO K1 cells transfected with rat VR1); format: cell-based; details: for activation at 10 µM / inhibition at 10 µM: CHO-K1; for activation at 10 µM / inhibition at 10 µM / VR1 (rat) (% stimulation compared to 10 μM CP) / VR1 (rat) (% inhibition compared to 10 μM CP): test compound 10 μM; for activation at 10 µM / VR1 (rat) (% stimulation compared to 10 μM CP): % activation based on Ca2+ signal after 10 μM capsaicin (CP); for activation at 10 µM: read-out: VR1 (rat) (% stimulation compared to 10 μM CP); for inhibition at 10 µM / VR1 (rat) (% inhibition compared to 10 μM CP): suppression of Ca2+ current after 100 nM capsaicin, relative to maximum inhibition with 10 μM capsaicin (CP); for inhibition at 10 µM: read-out: VR1 (rat) (% inhibition compared to 10 μM CP); for EC50: agonistic action
T2 construct: host or cells: rat dorsal root ganglia primary cells (Ia) or CHO K1 cells stably transfected with the rat VR1 gene (Ib)
T2 sequence (O35433 whole entry): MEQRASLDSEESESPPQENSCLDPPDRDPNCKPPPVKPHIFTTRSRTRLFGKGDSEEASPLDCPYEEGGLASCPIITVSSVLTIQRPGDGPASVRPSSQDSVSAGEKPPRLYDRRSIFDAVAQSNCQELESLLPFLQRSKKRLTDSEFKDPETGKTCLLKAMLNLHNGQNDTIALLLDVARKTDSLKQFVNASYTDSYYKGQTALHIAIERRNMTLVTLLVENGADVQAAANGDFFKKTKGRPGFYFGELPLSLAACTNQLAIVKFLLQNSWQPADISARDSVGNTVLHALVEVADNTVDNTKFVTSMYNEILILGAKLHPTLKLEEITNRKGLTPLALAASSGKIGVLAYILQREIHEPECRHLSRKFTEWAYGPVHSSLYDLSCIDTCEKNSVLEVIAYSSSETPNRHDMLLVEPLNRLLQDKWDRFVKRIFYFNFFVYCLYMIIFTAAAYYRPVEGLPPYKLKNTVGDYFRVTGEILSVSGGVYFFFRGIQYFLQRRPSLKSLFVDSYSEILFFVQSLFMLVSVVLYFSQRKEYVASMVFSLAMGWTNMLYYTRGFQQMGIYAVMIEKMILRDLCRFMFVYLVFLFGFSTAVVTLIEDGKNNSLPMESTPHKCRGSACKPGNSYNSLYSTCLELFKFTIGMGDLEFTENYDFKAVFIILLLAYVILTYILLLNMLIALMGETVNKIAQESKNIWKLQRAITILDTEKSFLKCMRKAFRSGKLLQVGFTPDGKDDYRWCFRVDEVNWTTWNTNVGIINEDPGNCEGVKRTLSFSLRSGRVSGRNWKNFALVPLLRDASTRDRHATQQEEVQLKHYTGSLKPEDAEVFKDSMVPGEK
Protocol: The agonistic or antagonistic action of the substances to be studied on the vanilloid receptor 1 (VR1/TRPV1) of the rat species can be determined with the following assay. In this assay, the Ca^2+ current through the receptor channel is quantified with the aid of a Ca^2+-sensitive dye (Fluo-4 type, Molecular Probes Europe BV, Leiden the Netherlands) in a fluorescent imaging plate reader (FLIPR, Molecular Devices, Sunnyvale, USA).
Complete medium: 50 ml HAMS F12 Nutrient Mixture (Gibco Invitrogen GmbH, Karlsruhe, Germany) with
10% by volume of FCS (fetal calf serum, Gibco Invitrogen GmbH, Karlsruhe, Germany, heat-inactivated);
2 mM L-glutamine (Sigma, Munich, Germany);
1% by weight of AA solution (antibiotic/antimycotic solution, PAA, Pasching, Austria) and 25 ng/ml of NGF medium (2.5 S, Gibco Invitrogen GmbH, Karlsruhe, Germany)
Cell culture plate: poly-D-lysine-coated, black 96-hole plates with a clear bottom (96 well black/clear plate, BD Biosciences, Heidelberg, Germany) are additionally coated with laminin (Gibco Invitrogen GmbH, Karlsruhe, Germany) by diluting laminin to a concentration of 100 μg/ml with PBS (Ca—Mg-free PBS, Gibco Invitrogen GmbH, Karlsruhe, Germany). Aliquots having a concentration of 100 μg/ml of laminin are withdrawn and stored at −20° C. The aliquots are diluted with PBS in a ratio of 1:10 to 10 μg/ml of laminin and in each case 50 μl of the solution are pipetted into a well of the cell culture plate. The cell culture plates are incubated at 37° C. for at least two hours, the supernatant solution is removed by suction and the wells are each washed twice with PBS. The coated cell culture plates are stored with supernatant PBS which is not removed until directly before the application of the cells.
The spinal column is removed from beheaded rats and placed directly into cold HBSS buffer (Hank's buffered saline solution, Gibco Invitrogen GmbH, Karlsruhe, Germany), i.e. placed in an ice bath, which has been admixed with 1% by volume of an AA solution (antibiotic/antimycotic solution, PAA, Pasching, Austria). The spinal column is severed longitudinally and removed from the spinal canal together with fasciae. Subsequently, the dorsal root ganglia (DRGs) are removed and in turn stored in cold HBSS buffer admixed with 1% by volume of an […]. The DRGs freed completely of blood residues and spinal nerves are in each case transferred to 500 μl of cold type 2 collagenase (PAA, Pasching, Austria) and incubated at 37° C. for 35 minutes. After addition of 2.5% by volume of trypsin (PAA, Pasching, Austria), incubation is continued at 37° C. for a further 10 minutes. After complete incubation, the enzyme solution is cautiously pipetted off and the remaining DRGs are each admixed with 500 μl of complete medium.
The DRGs are each suspended repeatedly, drawn through cannulas No. 1, No. 12 and No. 16 by means of a syringe and transferred to 50 ml Falcon tubes which are made up to 15 ml with complete medium. The contents of each Falcon tube are in each case filtered through a 70 μm Falcon filter insert and centrifuged at 1200 revolutions and room temperature for 10 minutes. The resulting pellet is in each case taken up in 250 μl of complete medium and the cell count is determined.
The number of cells in the suspension is adjusted to 3 times 10^5 per ml and in each case 150 μl of this suspension are added to one well of the cell culture plates coated as described above. In the incubator, the plates are left to stand at 37° C., 5% by volume of CO2 and 95% relative air humidity for two to three days.
Subsequently, the cells are laden with 2 μM Fluo-4 and 0.01% by volume of Pluronic F127 (Molecular Probes Europe BV, Leiden, the Netherlands) in HBSS buffer (Hank's buffered saline solution, Gibco Invitrogen GmbH, Karlsruhe, Germany) at 37° C. for 30 min, washed 3× with HBSS buffer and, after a further incubation of 15 minutes, used in the FLIPR assay at room temperature for Ca^2+ measurement. […]

inhibition at 10 µM [1] [%] | EC50 ([1]; FLIPR) [µM] | activation at 10 µM [2] [%] | inhibition at 10 µM [2] [%] | EC50 ([2]; FLIPR) [µM] | VR1 (human) (% inhibition compared to 10 μM CP) [1] [%] | VR1 (rat) (% stimulation compared to 10 μM CP) [2] [%] | VR1 (rat) (% inhibition compared to 10 μM CP) [2] [%] | Compound | further results
96.6 | 1.4 | 67 | 106 | 4.1 |  |  |  | Cc1cccc2c1C(=O)C(COC(=O)Nc1ccccc1)(COC(=O)Nc1ccccc1)CS2 [Example Compound 40, (5-methyl-4-oxothiochroman-3,3-diyl)bis(methylene)bis(phenylcarbamate)] | 
 | 0.99 |  |  | 5.86 | 88.33 | 109.36 | 119.74 | (7-methyl-4-oxothiochroman-3,3-diyl)bis(methylene)bis(phenylcarbamate) [Example Compound 39] | 
95 | 0.995 | 38 | 14 | 2.4 |  |  |  | O=C(Nc1ccccc1)OCC1(COC(=O)Nc2ccccc2)CSc2ccccc2C1=O [Example Compound 41, 3,3-bis(phenylcarbamoyloxymethyl)thiochroman-4-one] | 
38.5 | 6.4 | 25 | 96.8 | 13.8 |  |  |  | Cc1cccc2c1C(=O)C(COC(=O)Nc1ccccc1)(COC(=O)Nc1ccccc1)CS2(=O)=O [Example Compound 46, 3,3-bis(phenylcarbamoyloxymethyl)-5-methyl-1,1-dioxo-1λ^6-thiochroman-4-one] | 

Second part, the compound before the results:

Compound | inhibition at 10 µM [1] [%] | EC50 ([1]; FLIPR) [µM] | activation at 10 µM [2] [%] | inhibition at 10 µM [2] [%] | EC50 ([2]; FLIPR) [µM] | VR1 (human) (% inhibition compared to 10 μM CP) [1] [%] | VR1 (rat) (% stimulation compared to 10 μM CP) [2] [%] | VR1 (rat) (% inhibition compared to 10 μM CP) [2] [%] | further results
O=C(Nc1cccc(C(F)(F)F)c1)OCC1(COC(=O)Nc2cccc(C(F)(F)F)c2)CSc2ccccc2C1=O [Example Compound 54, 3,3-bis(3-trifluoromethylphenylcarbamoyloxymethyl)thiochroman-4-one] |  |  |  |  |  |  |  |  | melting point: 58 to 63 °C
O=C(Nc1ccc(C(F)(F)F)cc1)OCC1(COC(=O)Nc2ccc(C(F)(F)F)cc2)CSc2ccccc2C1=O [Example Compound 52, 3,3-bis(4-trifluoromethylphenylcarbamoyloxymethyl)thiochroman-4-one] |  |  |  |  |  |  |  |  | melting point: 76 to 82 °C
(8-chloro-4-oxothiochroman-3,3-diyl)bis(methylene)bis(3-(trifluoromethyl)phenylcarbamate) [Example Compound 20] |  |  |  |  |  | 88.98 | 47.96 | 107.78 | IC50 ([1]; FLIPR, antagonistic action): 5.78 µM; IC50 ([2]; FLIPR, antagonistic action): 6.44 µM
(7,8-dichloro-4-oxothiochroman-3,3-diyl)bis(methylene)bis(2-(trifluoromethyl)phenylcarbamate) [Example Compound 31] |  |  |  |  |  | 83.36 | 22.05 | 38.68 | 
Cc1cccc2c1SCC(CO)(COS(=O)(=O)c1ccc(C(C)(C)C)cc1)C2=O (stereo not drawn) [Example Compound 13, 4-tert-butylbenzenesulfonic acid 3-hydroxymethyl-8-methyl-4-oxo-thiochroman-3-ylmethyl ester] | 23.8 |  | 0.81 | 40.3 |  |  |  |  | 
(6-fluoro-4-oxothiochroman-3,3-diyl)bis(methylene)bis(3-(trifluoromethyl)phenylcarbamate) [Example Compound 30] |  |  |  |  |  | 80.26 | 94.65 | 44.38 | 
(7,8-dichloro-4-oxothiochroman-3,3-diyl)bis(methylene)bis(3-(trifluoromethyl)phenylcarbamate) [Example Compound 29] |  |  |  |  |  | 91.55 | 88.01 | 100.80 | 
(8-chloro-4-oxothiochroman-3,3-diyl)bis(methylene)bis(2-(trifluoromethyl)phenylcarbamate) [Example Compound 14] |  |  |  |  |  | 69.64 | 17.64 | 61.99 | 
